Assay results: US9408859B2, “Pharmaceutical compositions useful for preventing and treating cancer” (Mitotech SA, priority 2007, dated 2016)
Several values for one entry are separate records, joined by “and”; a condition that tells them apart may be missing. Identical values can stand only once.

Experiments:
[1] = system: Mouse Ras-transformed fibroblast cells; assay: Effect on morphology and adherence of Ras-transformed cells; assay type: cell-based
Method: The experiment was carried out using cells, transformed with genetic construct, expressing oncogene RAS, and thus modeling conditions of cells underwent cancerous transformation. (see, model description in Levina, et al. (1996), Exp. Cell. Res., November 25; 229(1):159-165).
Mouse Ras-transformed fibroblast cells had strongly expressed changed morphology (FIG. 1), one close to morphology of metastasizing cancerous cells (decrease in surface square, cell elongation). […] Cells were poorly adherent and spread-eagled what led to monolayer structure disorder.
However incubation with SkQ1 led to significant changes in cells morphology (FIG. 1). […] Morphological changes correlated with actinic fibrils increase in content, focal contact reinforcement and cell better adherence to the surface.

Ehrlich's carcinoma = assay: Anti-tumoral effect on hypodermic Ehrlich's carcinoma; assay type: in vivo, mouse; details: 0.5 nM/kg ip
Method: The experiment was performed according to the methods described in Example 2.
Injection of the preparation started 48 hours after transplantation and proceeded during 5, 10, 15, and 30 days. For tumor treatment efficiency, estimations of tumor volumes were evaluated many times after end of short courses or once after end of the 30-day course. […] The results were then statistically calculated using confidence intervals of mean values of compared values, difference stated reliable if p<0.05.

[2] = system: A-431 human skin cancer heteroxenografts; assay: Anti-tumoral activity on A-431 heteroxenografts (tumor volume, T/C, histology); assay type: in vivo, mouse
Method: Before administration, SkQ1 was diluted with sterile physiological saline up to 0.5 μM and 5.0 μM. The preparation was injected intraperitoneally as single doses of 5.0 nM/kg and 50.0 nM/kg, 0.2 ml/mouse.
(1973) 51:1417-1423. • Morphology: epithelial. • Cultivation method: monolayer. • Cultivation conditions: 10% bovine embryonal serum DMEM culture. • Procedure of seeding: cell removal using 0.25% trypsin, 0.02% versene (3:7), ratio of seeding 1:3 1:6, optimal density 2.04.0×10^4 cell per sm^2 cryopreservation media, 10% DMSO, 1.0×10^6 cells/ml per ampoule. • Viability after cryopreservation: 83% (trypan blue staining on zero passage) • Contamination control: no bacteria, fungi or micoplasma detected • Genetic identity control: karyological, enzymatic (LDH, G6PDH) analysis. • Karyology: 2n-46, chromosome variability limit 5777, chromosome modal number 6871 • Tumorigenicity: tumorigenic in HIV mice and in mice treated with antithymocyte serum. • Other features: large number of receptors to epidermal growth factor. • Application area: growth factors study, cell biology. • Collection: ATCC CRL 1555; ECACC 85090402; INC RAS.
A-431 cells were grown on RPMI-1640 medium that contained 10% calf serum and 1 mM glutamine. Cells were transferred to a flask at a ratio of 1:2 or 1:3 from full monolayer. The medium was changed every 2 to 3 days. A cultivated cell suspension was then used to engraft HIV mice.
The experiment was performed using HIV female mice Balb/c nude at the age 8 to 9.5 weeks. All mice were raised in GU RONC. Mice were managed in specialized virus-free chamber with sterile aeration, fed with sterile briquette food and water under normalized temperature condition and moisture.
Cells of A-431 cell line were hypodermically implanted only once in number 1.7-1×10^6 per mouse in 0.2 ml of RPMI-1640 nutrition medium.
Anti-tumoral effect estimation was carried out using common rate T/C (Treatment/Control), evaluated as a ratio of average tumor volumes in treated and control groups given in percents. Rate was taken evaluated using the following formula T/C %=[…],
where Vo and Vk are the mean volumes of tumor in treated and control groups thereof. Thus, in the control group, T/C=100%. Mean volume was evaluated using the following formula: Vm (mm^3)=axbxc. T/C≦42% was taken as a minimal efficiency criterion (Anticancer Drug Development Guide (1997) (ed. B. A. Teicher) Humana Press, Totowa, N.J., pp. 101-125). To analyze the speed of growth (standarcy value), a ratio of mean tumor relative to the first one taken was determined as follows.
Evaluation started after the appearance of a palpable tumor (9 days after implantation). After that multiple tumor volume evaluations were performed until the 20th day after transplantation. The first evaluation of treated groups was performed during treatment, and the next three evaluations were performed during 6 days after end of the treatment. Tumor evaluations were stopped on the 21st to the 24th day after the first mouse died in three experiments.
Mice were sacrificed by ether anesthesia overdose. An autopsy was performed, and tumors were then extracted and assayed histologically and immunohistochemically. Tumors were fixed in 10% formaldehyde and set into paraffin wax. Histological assays were carried out on tumor histological sections, stained with hematoxylin and eosin. The number of microvessels was examined by standard immunological method using antibodies to CD34 antigen. Presence of vessel mimicry was estimated by tumor section staining with Schiffs reagent.

[3] = Experiment 1 material, Group 2, 5.0 nM/kg

With `CC1=C(C)C(=O)C(CCCCCCCCCC[P+](c2ccccc2)(c2ccccc2)c2ccccc2)=CC1=O` [SkQ1] the “Mean cell surface square value” ([1]; Ras-transformed fibroblasts incubated with SkQ1) was “increased manifold”, the Monolayer formation ([1]; Ras-transformed fibroblasts treated with SkQ1) was “formed monolayers similar to those of normal fibroblasts” and the tumor volume (Ehrlich's carcinoma; 5-day course, days 2-7, day 7 after transplantation) was 251 mm³. It also gave a TGS% (Ehrlich's carcinoma; 5-day course, day 7) of 40%, a TGS% (Ehrlich's carcinoma; 5-day course, day 14) of 23% and a tumor volume (Ehrlich's carcinoma; 5-day course, day 14) of 547 mm³. For the same compound, the TGS% (Ehrlich's carcinoma; 5-day course, day 21) was 16%, the tumor volume (Ehrlich's carcinoma; 5-day course, day 21) was 1000 mm³ and the tumor volume (Ehrlich's carcinoma; 10-day course, days 2-13, day 7) was 228 mm³. The TGS% (Ehrlich's carcinoma; 10-day course, day 7) was 45%, the TGS% (Ehrlich's carcinoma; 10-day course, day 14) was 34% and the tumor volume (Ehrlich's carcinoma; 10-day course, day 14) was 474 mm³. For the same compound, the TGS% (Ehrlich's carcinoma; 10-day course, day 21) was 28%, the tumor volume (Ehrlich's carcinoma; 10-day course, day 21) was 853 mm³ and the tumor volume (Ehrlich's carcinoma; 15-day course, days 2-16, day 7) was 259 mm³. It also gave a TGS% (Ehrlich's carcinoma; 15-day course, day 7) of 38%, a TGS% (Ehrlich's carcinoma; 15-day course, day 14) of 36% and a tumor volume (Ehrlich's carcinoma; 15-day course, day 14) of 459 mm³. For the same compound, the TGS% (Ehrlich's carcinoma; 15-day course, day 21) was 29%, the tumor volume (Ehrlich's carcinoma; 15-day course, day 21) was 838 mm³ and the T/C ([2]; Experiment 1, 5.0 nM/kg ip daily day 1-14, 14th day) was 74%. It also gave a T/C ([2]; Experiment 1, 5.0 nM/kg ip daily day 1-14, 17th day) of 67%, a T/C ([2]; Experiment 1, 5.0 nM/kg ip daily day 1-14, 20th day) of 73% and a T/C ([2]; Experiment 1, 5.0 nM/kg ip daily, 9th day (after 8 injections)) of 63%. The T/C ([2]; Experiment 1, 50.0 nM/kg ip daily day 1-14, 9th day) was 159%, the T/C ([2]; Experiment 1, 50.0 nM/kg ip daily day 1-14, 14th day) was 160% and the T/C ([2]; Experiment 1, 50.0 nM/kg ip daily day 1-14, 17th day) was 134%. The T/C ([2]; Experiment 1, 50.0 nM/kg ip daily day 1-14, 20th day) was 146%, the “Tumor differentiation (histological assay)” value ([2]; Experiment 1 material, 5.0 nM/kg, vs control) was “partial tumor differentiation” and the “Number of microvessels in tumors (CD34, hot spots)” value ([2]; Experiment 1 material, 23rd day, 9th day after end of treatment, three groups (control, 5.0 and 50.0 nM/kg)) was “did not statistically differ”. The Microvessel diameter [2, 3] was “smaller diameter than in the control group”, the “Signs of vasculogenic mimicry (PAS staining)” value [2, 3] was “no such signs were seen” and the T/C ([2]; Experiment 2, 5.0 nM/kg ip daily day 1-8, 8th day) was 61%. For the same compound, the T/C ([2]; Experiment 2, 5.0 nM/kg ip daily day 1-8, 14th day) was 72%, the T/C ([2]; Experiment 2, 5.0 nM/kg ip daily day 1-8, 17th day) was 96% and the T/C ([2]; Experiment 2, 5.0 nM/kg ip daily day 1-8, 24th day) was 101%. The T/C ([2]; Experiment 3, 5.0 nM/kg ip daily day 1-14, immediately after the end of the treatment) was 41% and 42% and the inhibition of growth ([2]; long-termed injection, single doses 5.0 nM/kg, in some cases) was 50%.
